Columns and labels:
[1] = target: human adenosine A2B receptor (Homo sapiens (Human), UniProt P29275); assay: Adenosine A2B Receptor Cyclic AMP GS Assay; assay type: cell-based; settings: HEK-293 cells expressing human A2B receptor; agonist NECA at 12 nM; cAMP accumulation (FRET); read-out: A2B_cAMP_EC50
Method: Stably transfected HEK-293 cells expressing the human adenosine A2B receptor (Perkin Elmer) were maintained in MEM culture medium with 10% FBS and 100 μg/ml Geneticin (Life Technologies). 18 to 24 hours prior to assay, geneticin was removed from culture. The cisbio cAMP-GS Dynamic kit utilizing the FRET (Fluorescence Resonance Energy Transfer) technology was used to measure cAMP accumulation in the cells. Compounds of the present disclosure at an appropriate concentration were mixed with 10000 cells/well in white 96 well half area plates (Perkin Elmer) for 30 min at RT gently shaking. Agonist, NECA (R&D Technologies) at 12 nM was added to each well for 60 min at RT gently shaking. Detection reagents, d2-labeled cAMP (acceptor) and anti-cAMP cryptate (donor) were added to each well for 60 min at RT gently shaking. Plates were read on Pherastar (BMG Labtech), fluorescence ratio 665/620 was calculated and EC50 determination was performed by fitting the curve of percent of control versus the log of the compound concentration using GraphPad Prism.

Adenosine A2A receptor = Adenosine A2A receptor (Homo sapiens (Human), UniProt P29274); assay: A2A Tag-lite HTRF Assay; settings: Tag-lite Adenosine A2A labeled cells; A2A Receptor Red antagonist fluorescent ligand 12.5 nM; one-site competitive binding model; read-out: A2A_Ki
Excerpt: The final concentration of DMSO was 1%.

human adenosine A2B receptor, sequence (P29275 whole entry): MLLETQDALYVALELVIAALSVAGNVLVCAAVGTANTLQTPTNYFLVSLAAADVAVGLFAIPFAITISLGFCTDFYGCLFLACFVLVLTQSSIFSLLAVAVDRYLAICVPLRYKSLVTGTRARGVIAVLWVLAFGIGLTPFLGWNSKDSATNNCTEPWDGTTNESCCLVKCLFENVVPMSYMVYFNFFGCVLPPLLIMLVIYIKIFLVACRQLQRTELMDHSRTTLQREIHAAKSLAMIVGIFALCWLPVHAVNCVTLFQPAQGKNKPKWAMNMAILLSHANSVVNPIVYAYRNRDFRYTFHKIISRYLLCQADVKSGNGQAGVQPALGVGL
Adenosine A2A receptor, sequence (P29274 whole entry): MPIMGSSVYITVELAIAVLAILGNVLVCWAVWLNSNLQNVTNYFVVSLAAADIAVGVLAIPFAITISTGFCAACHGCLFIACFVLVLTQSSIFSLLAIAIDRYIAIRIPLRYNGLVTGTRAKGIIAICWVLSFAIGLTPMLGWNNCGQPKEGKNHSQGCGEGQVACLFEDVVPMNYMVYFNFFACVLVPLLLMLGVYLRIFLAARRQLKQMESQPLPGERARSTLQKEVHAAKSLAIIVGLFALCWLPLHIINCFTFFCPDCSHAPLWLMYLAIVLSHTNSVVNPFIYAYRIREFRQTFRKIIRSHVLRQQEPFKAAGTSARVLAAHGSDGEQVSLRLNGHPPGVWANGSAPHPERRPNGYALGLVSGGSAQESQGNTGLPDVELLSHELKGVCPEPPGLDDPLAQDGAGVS

Molecule `Cn1cc(-c2ccccc2Cc2nc3c(-c4ccncn4)c(-c4cccc(C#N)c4)nc(N)n3n2)cn1` [Example 54, 3-(5-Amino-2-(2-(1-methyl-1H-pyrazol-4-yl)benzyl)-8-(pyrimidin-4-yl)-[1,2,4]triazolo[1,5-c]pyrimidin-7-yl)benzonitrile] has an EC50 [1] of under 10 nM and a Ki (Adenosine A2A receptor) of under 10 nM.
In the case of `CCn1nccc1-c1c(-c2cccc(C#N)c2)nc(N)n2nc(Cc3noc4ccccc34)nc12` [Example 55, 3-(5-Amino-2-(benzo[d]isoxazol-3-ylmethyl)-8-(1-ethyl-1H-pyrazol-5-yl)-[1,2,4]triazolo[1,5-c]pyrimidin-7-yl)benzonitrile], the EC50 [1] is reported as under 10 nM and the Ki (Adenosine A2A receptor) is reported as under 10 nM.
`CCn1nccc1-c1c(-c2cccc(C#N)c2)nc(N)n2nc(Cc3nn(C)c4ccccc34)nc12` [Example 56, 3-(5-Amino-8-(1-ethyl-1H-pyrazol-5-yl)-2-((1-methyl-1H-indazol-3-yl)methyl)-[1,2,4]triazolo[1,5-c]pyrimidin-7-yl)benzonitrile] showed an EC50 [1] of 10 to 100 nM and a Ki (Adenosine A2A receptor) of under 10 nM.
`N#Cc1cccc(-c2nc(N)n3nc(CN4CC(O)C4)nc3c2-c2ccncn2)c1` [Example 57, 3-(5-Amino-2-((3-hydroxyazetidin-1-yl)methyl)-8-(pyrimidin-4-yl)-[1,2,4]triazolo[1,5-c]pyrimidin-7-yl)benzonitrile] showed an EC50 [1] of 100 to 1000 nM and a Ki (Adenosine A2A receptor) of under 10 nM.
For `Cc1cnccc1-c1c(-c2cccc(C#N)c2)nc(N)n2nc(Cc3ccccn3)nc12` [Example 58, 3-(5-Amino-8-(3-methylpyridin-4-yl)-2-(pyridin-2-ylmethyl)-[1,2,4]triazolo[1,5-c]pyrimidin-7-yl)benzonitrile], the EC50 [1] was under 10 nM and the Ki (Adenosine A2A receptor) was under 10 nM.
With `COc1cc(-c2c(-c3cccc(C#N)c3)nc(N)n3nc(Cc4ccccn4)nc23)cc(C)n1` [Example 59, 3-(5-Amino-8-(2-methoxy-6-methylpyridin-4-yl)-2-(pyridin-2-ylmethyl)-[1,2,4]triazolo[1,5-c]pyrimidin-7-yl)benzonitrile] the EC50 [1] was 10 to 100 nM and the Ki (Adenosine A2A receptor) was under 10 nM.
Work on `N#Cc1cccc(-c2nc(N)n3nc(Cc4ccccn4)nc3c2-c2cnn3ncccc23)c1` [Example 60, 3-(5-Amino-8-(pyrazolo[1,5-b]pyridazin-3-yl)-2-(pyridin-2-ylmethyl)-[1,2,4]triazolo[1,5-c]pyrimidin-7-yl)benzonitrile] yielded an EC50 [1] of 10 to 100 nM and a Ki (Adenosine A2A receptor) of under 10 nM.
In the case of `Cc1ncoc1-c1c(-c2cccc(C#N)c2)nc(N)n2nc(Cc3ccccn3)nc12` [Example 61, 3-(5-Amino-8-(4-methyloxazol-5-yl)-2-(pyridin-2-ylmethyl)-[1,2,4]triazolo[1,5-c]pyrimidin-7-yl)benzonitrile], the EC50 [1] is reported as under 10 nM and the Ki (Adenosine A2A receptor) is reported as under 10 nM.
For `Cc1nc(CO)c(-c2c(-c3cccc(C#N)c3)nc(N)n3nc(Cc4ccccn4)nc23)o1` [Example 62, 3-(5-Amino-8-(4-(hydroxymethyl)-2-methyloxazol-5-yl)-2-(pyridin-2-ylmethyl)-[1,2,4]triazolo[1,5-c]pyrimidin-7-yl)benzonitrile], the EC50 [1] was under 10 nM and the Ki (Adenosine A2A receptor) was under 10 nM.
`COCc1nc(C)oc1-c1c(-c2cccc(C#N)c2)nc(N)n2nc(Cc3ccccn3)nc12` [Example 63, 3-(5-Amino-8-(4-(methoxymethyl)-2-methyloxazol-5-yl)-2-(pyridin-2-ylmethyl)-[1,2,4]triazolo[1,5-c]pyrimidin-7-yl)benzonitrile] showed an EC50 [1] of under 10 nM and a Ki (Adenosine A2A receptor) of under 10 nM.
Molecule `N#Cc1cccc(-c2nc(N)n3nc([C@@H](O)c4ccccc4)nc3c2-c2ccncn2)c1` [Example 64, (S)-3-(5-amino-2-(hydroxy(phenyl)methyl)-8-(pyrimidin-4-yl)-[1,2,4]triazolo[1,5-c]pyrimidin-7-yl)benzonitrile] has an EC50 [1] of under 10 nM and a Ki (Adenosine A2A receptor) of under 10 nM.
With `N#Cc1cccc(-c2nc(N)n3nc([C@H](O)c4ccccc4)nc3c2-c2ccncn2)c1` [Example 65, (R)-3-(5-amino-2-(hydroxy(phenyl)methyl)-8-(pyrimidin-4-yl)-[1,2,4]triazolo[1,5-c]pyrimidin-7-yl)benzonitrile] the EC50 [1] was under 10 nM and the Ki (Adenosine A2A receptor) was under 10 nM.
In the case of `N#Cc1cccc(-c2nc(N)n3nc(C(=O)c4ccccc4)nc3c2-c2ccncn2)c1` [Example 66, 3-(5-Amino-2-benzoyl-8-(pyrimidin-4-yl)-[1,2,4]triazolo[1,5-c]pyrimidin-7-yl)benzonitrile], the EC50 [1] is reported as under 10 nM and the Ki (Adenosine A2A receptor) is reported as under 10 nM.
Work on `CCn1nccc1-c1c(-c2cccc(C#N)c2)nc(N)n2nc(C3(c4ccccc4)CC3)nc12` [Example 67, 3-(5-Amino-8-(1-ethyl-1H-pyrazol-5-yl)-2-(1-phenylcyclopropyl)-[1,2,4]triazolo[1,5-c]pyrimidin-7-yl)benzonitrile] yielded an EC50 [1] of 100 to 1000 nM and a Ki (Adenosine A2A receptor) of under 10 nM.
Work on `N#Cc1cccc(-c2nc(Nc3ncccc3C#N)n3nc(C(O)c4ccccc4)nc3c2-c2ccncn2)c1` (stereo not drawn) [Example 68, 2-((7-(3-Cyanophenyl)-2-(hydroxy(phenyl)methyl)-8-(pyrimidin-4-yl)-[1,2,4]triazolo[1,5-c]pyrimidin-5-yl)amino)nicotinonitrile] yielded an EC50 [1] of 100 to 1000 nM and a Ki (Adenosine A2A receptor) of under 10 nM.
`N#Cc1cccc(-c2nc(N)n3nc(NC(C#N)c4ccccc4)nc3c2-c2ccncn2)c1` (stereo not drawn) [Example 69, 3-(5-Amino-2-((cyano(phenyl)methyl)amino)-8-(pyrimidin-4-yl)-[1,2,4]triazolo[1,5-c]pyrimidin-7-yl)benzonitrile] gave an EC50 [1] of 10 to 100 nM and a Ki (Adenosine A2A receptor) of under 10 nM.
With `N#Cc1cccc(-c2nc(N)n3nc(C4CCOC4)nc3c2-c2ccncc2)c1` (stereo not drawn) [Example 70, 3-(5-Amino-8-(pyridin-4-yl)-2-(tetrahydrofuran-3-yl)-[1,2,4]triazolo[1,5-c]pyrimidin-7-yl)benzonitrile] the EC50 [1] was 10 to 100 nM and the Ki (Adenosine A2A receptor) was under 10 nM.
`N#Cc1cccc(-c2nc(N)n3nc(C(Oc4ccccn4)c4ccccc4)nc3c2-c2ccncn2)c1` (stereo not drawn) [Example 71, 3-(5-Amino-2-(phenyl(pyridin-2-yloxy)methyl)-8-(pyrimidin-4-yl)-[1,2,4]triazolo[1,5-c]pyrimidin-7-yl)benzonitrile] showed an EC50 [1] of 10 to 100 nM and a Ki (Adenosine A2A receptor) of under 10 nM.
In the case of `N#Cc1cccc(-c2nc(N)n3nc(Cc4c(F)cccc4CN4C[C@@H](O)[C@H](F)C4)nc3c2-c2ccncn2)c1` [Example 72, 3-(5-Amino-2-(2-fluoro-6-(((3R,4R)-3-fluoro-4-hydroxypyrrolidin-1-yl)methyl)benzyl)-8-(pyrimidin-4-yl)-[1,2,4]triazolo[1,5-c]pyrimidin-7-yl)benzonitrile], the EC50 [1] is reported as 10 to 100 nM and the Ki (Adenosine A2A receptor) is reported as under 10 nM.
`N#Cc1cccc(-c2nc(N)n3nc(Cc4c(F)cccc4CN4CCC(C(=O)O)CC4)nc3c2-c2ccncn2)c1` [Example 73, 1-(2-((5-Amino-7-(3-cyanophenyl)-8-(pyrimidin-4-yl)-[1,2,4]triazolo[1,5-c]pyrimidin-2-yl)methyl)-3-fluorobenzyl)piperidine-4-carboxylic acid] gave an EC50 [1] of 10 to 100 nM and a Ki (Adenosine A2A receptor) of under 10 nM.
Work on `CN(Cc1cccc(F)c1Cc1nc2c(-c3ccncn3)c(-c3cccc(C#N)c3)nc(N)n2n1)S(C)(=O)=O` [Example 74, N-(2-((5-Amino-7-(3-cyanophenyl)-8-(pyrimidin-4-yl)-[1,2,4]triazolo[1,5-c]pyrimidin-2-yl)methyl)-3-fluorobenzyl)-N-methylmethanesulfonamide] yielded an EC50 [1] of under 10 nM and a Ki (Adenosine A2A receptor) of under 10 nM.
In the case of `N#Cc1cccc(-c2nc(N)n3nc(Cc4c(F)cccc4CN4C(=O)CNC4=O)nc3c2-c2ccncn2)c1` [Example 75, 3-(5-Amino-2-(2-((2,5-dioxoimidazolidin-1-yl)methyl)-6-fluorobenzyl)-8-(pyrimidin-4-yl)-[1,2,4]triazolo[1,5-c]pyrimidin-7-yl)benzonitrile], the EC50 [1] is reported as under 10 nM and the Ki (Adenosine A2A receptor) is reported as under 10 nM.
`Cc1cc(C(F)(F)F)nn1Cc1nc2c(-c3ccncn3)c(-c3cccc(C#N)c3)nc(N)n2n1` [Example 81, 3-(5-Amino-2-((5-methyl-3-(trifluoromethyl)-1H-pyrazol-1-yl)methyl)-8-(pyrimidin-4-yl)-[l*2,4]triazolo[1,5-c]pyrimidin-7-yl)benzonitrile] showed an EC50 [1] of under 10 nM and a Ki (Adenosine A2A receptor) of under 10 nM.
In the case of `CCc1ncoc1-c1c(-c2cccc(C#N)c2)nc(N)n2nc(Cc3ccccn3)nc12` [Example 82, 3-(5-Amino-8-(4-ethyloxazol-5-yl)-2-(pyridin-2-ylmethyl)-[1,2,4]triazolo[1,5-c]pyrimidin-7-yl)benzonitrile], the EC50 [1] is reported as under 10 nM and the Ki (Adenosine A2A receptor) is reported as under 10 nM.
Molecule `CCn1nncc1-c1c(-c2cccc(C#N)c2)nc(N)n2nc(Cc3ccccn3)nc12` [Example 83, 3-(5-Amino-8-(1-ethyl-1H-1,2,3-triazol-5-yl)-2-(pyridin-2-ylmethyl)-[1,2,4]triazolo[1,5-c]pyrimidin-7-yl)benzonitrile] has an EC50 [1] of 10 to 100 nM and a Ki (Adenosine A2A receptor) of under 10 nM.
`Cc1cccnc1Cc1nc2c(-c3ocnc3C)c(-c3cccc(C#N)c3)nc(N)n2n1` [Example 84, 3-(5-Amino-8-(4-methyloxazol-5-yl)-2-((3-methylpyridin-2-yl)methyl)-[1,2,4]triazolo[1,5-c]pyrimidin-7-yl)benzonitrile] was tested, and the EC50 [1] was under 10 nM and the Ki (Adenosine A2A receptor) was under 10 nM.
Molecule `Cc1nc(CO)c(-c2c(-c3cccc(C#N)c3)nc(N)n3nc(Cc4ncccc4F)nc23)o1` [Example 85, 3-(5-Amino-2-((3-fluoropyridin-2-yl)methyl)-8-(4-(hydroxymethyl)-2-methyloxazol-5-yl)-[1,2,4]triazolo[1,5-c]pyrimidin-7-yl)benzonitrile] has an EC50 [1] of under 10 nM and a Ki (Adenosine A2A receptor) of under 10 nM.
